Legend:
Assay type in all cases: cell-based
Penicillium chrysogenum = test: Antifungal microplate growth inhibition assay (MIC, growth % of control); conditions: for MIC / concentration required alone to give strong growth inhibition: medium B (½ PDB + 1 mM CaCl2 + 50 mM KCl), agent used alone; for Fungal growth as compared to the control: individual application
Experimental: (§1) Unless otherwise stated the incubation was carried out at 24° C. for 48 hours. Percentages of fungal growth were estimated by microscopic examination of the microplates after the incubation period. The control microcultures were used as a reference in order to estimate fungal growth inhibition.
(§2) The antifungal potency of the purified proteins was assessed on different food spoilage fungi using the assay described above. Growth of fungi, collection and harvest of fungal spores were done as previously described (Broekaert et al., 1990, FEMS Microbiol. Lett., 69: 55-60).
(§3) The percentage growth inhibition was estimated by microscopic inspection of the microtitre plates, taking the microculture control with no antifungal protein added as a reference for normal fungal growth.
(§4) Following inoculation the plates were incubated at 24° C. for 48 hours.
(§5) Chitinase-I and β-1,3-glucanase were extracted and purified from tobacco according to the method published by Sela-Buurlage, M. B., et al., in 1993 (Plant Physiol. 101, 857-863). The purified enzymes were mixed in a 1:1 ratio and then tested for antifungal activity against the food spoilage fungal strains Penicillium roquefortii and P. chrysogenum. The antifungal assays were carried out as described above. Assessment of growth inhibition was carried out by microscopic examination after 48 and 96 hours incubation at 24° C.
(§6) In Colby's formula, E1=X1Y1/100, X1 and Y1 represent growth as a percentage of control with compound A (dosage p) and compound B (dosage q), respectively. E1 is the i5 expected growth as a percentage of control with the mixture A and B (dosage p+q). […] Comparison of the observed and expected percent inhibition responses (Eobs/Eexp) indicates synergism (Eobs/Eexp>1) or antagonism (Eobs/Eexp<1).

Penicillium roquefortii = test: as above; conditions: for Fungal growth as compared to the control: individual application; for MIC / concentration required alone to give strong growth inhibition: medium B (½ PDB + 1 mM CaCl2 + 50 mM KCl), agent used alone
Experimental: as §1, §2, §3, §4, §5, §6

Fusarium culmorum = test: Antifungal microplate growth inhibition assay (MIC); conditions: 48 h, 24° C.; for MIC / concentration required alone to give strong growth inhibition: medium B (½ PDB + 1 mM CaCl2 + 50 mM KCl), agent used alone
Experimental: as §1, §2, §3
(§7) The Ib-AMP1 pure protein was added to the test solution and mixed with the fungal spore suspension as described above. Following inoculation the plates were incubated at 24° C. for 48 hours. […] A summary of the results obtained is shown on table 14.

[1] = tested on: range of food spoilage strains; test: Antifungal microplate assay, statements on the whole range of strains; conditions: 200 ppm (maximum concentration tested), medium B, 48 hours, 24° C.
Experimental: as §1
The following fungal strains were used: Fusarium culmorum, Penicillium chrysogenum, Penicillium roquefortii, Penicillium commune, Penicillium nalgiovense, Mucor plumbeus, Scopulariopsis brevicaulis, Aspergillus versicolor, Alternaria sp., Cladosporium sp. and Trichoderma harzianum.
as §3, §7

Alternaria sp. = test: Antifungal microplate growth inhibition assay (MIC); conditions: 48 h, 24° C.; for MIC / concentration required alone to give strong growth inhibition: medium B (½ PDB + 1 mM CaCl2 + 50 mM KCl), agent used alone
Experimental: as §1, §2, §3, §4

Cladosporium sp. = test: as above; conditions: 48 h, 24° C.; for MIC / concentration required alone to give strong growth inhibition: medium B (½ PDB + 1 mM CaCl2 + 50 mM KCl), agent used alone
Experimental: as §1, §2, §3, §4

Trichoderma harzianum = test: as above; conditions: 48 h, 24° C.; for MIC / concentration required alone to give strong growth inhibition: medium B (½ PDB + 1 mM CaCl2 + 50 mM KCl), agent used alone
Experimental: as §1, §2, §3, §4

Mucor plumbeus = test: as above; conditions: medium B (½ PDB + 1 mM CaCl2 + 50 mM KCl), 48 h, 24° C., agent used alone
Penicillium commune = test: as above; conditions: medium B (½ PDB + 1 mM CaCl2 + 50 mM KCl), 48 h, 24° C., agent used alone
Experimental: Unless otherwise stated the incubation was carried out at 24° C. for 48 hours. Percentages of fungal growth were estimated by microscopic examination of the microplates after the incubation period. The control microcultures were used as a reference in order to estimate fungal growth inhibition. […] The antifungal potency of the purified proteins was assessed on different food spoilage fungi using the assay described above. Growth of fungi, collection and harvest of fungal spores were done as previously described (Broekaert et al., 1990, FEMS Microbiol. Lett., 69: 55-60). […] The percentage growth inhibition was estimated by microscopic inspection of the microtitre plates, taking the microculture control with no antifungal protein added as a reference for normal fungal growth.

[2] = medium B, 96 hours, 24° C., used alone
[3] = medium A (½ PDB), 48 h, 24° C., protein alone
[4] = medium A (½ PDB), protein alone

With `C/C=C/C=C/C(=O)[O-].[K+]` [K sorbate, potassium sorbate] the “Fungal growth inhibition, % of the controls” value (Penicillium chrysogenum; K sorbate alone, 96 hours incubation, medium B, strain not told apart from P. roquefortii) was 10-20%, the “MIC / concentration required alone to give strong growth inhibition” value (Penicillium chrysogenum; 48 h, 24° C.) was 1000 ppm and the “Concentration required alone to give strong growth inhibition” value (Penicillium chrysogenum; [2]) was >2,000 ppm. The “Fungal growth inhibition, % of the controls” value (Penicillium roquefortii; K sorbate alone, 96 hours incubation, medium B, strain not told apart from P. chrysogenum) was 10-20%, the “Fungal growth as compared to the control” value (Penicillium roquefortii; 500 ppm, medium B) was 90% and the “MIC / concentration required alone to give strong growth inhibition” value (Penicillium roquefortii; 48 h, 24° C.) was 1500 ppm. The “Concentration required alone to give strong growth inhibition” value (Penicillium roquefortii; [2]) was >2,000 ppm.
With `COc1ccc(O)c(C(C)(C)C)c1` [BHA, butylated hydroxyanisole] the “Fungal growth as compared to the control” value (Penicillium chrysogenum; 50 ppm, medium B) was 99%, the “MIC / concentration required alone to give strong growth inhibition” value (Penicillium chrysogenum; 48 h, 24° C.) was over 200 ppm and the “MIC / concentration required alone to give strong growth inhibition” value (Penicillium roquefortii; 48 h, 24° C.) was over 200 ppm. For the same compound, the “MIC / concentration required alone to give strong growth inhibition” value (Fusarium culmorum) was over 200 ppm, the “Antifungal activity of BHA added alone” value [1] was “no antifungal activity was observed” and the “MIC / concentration required alone to give strong growth inhibition” value (Alternaria sp.) was over 200 ppm. For the same compound, the “MIC / concentration required alone to give strong growth inhibition” value (Cladosporium sp.) was over 200 ppm, the “MIC / concentration required alone to give strong growth inhibition” value (Trichoderma harzianum) was over 200 ppm and the “MIC / concentration required alone to give strong growth inhibition” value (Mucor plumbeus) was over 200 ppm.
For `O=C([O-])c1ccccc1.[Na+]` [Na benzoate, sodium benzoate], the “Fungal growth as compared to the control” value (Penicillium chrysogenum; 500 ppm, medium B) was 99% and the “MIC / concentration required alone to give strong growth inhibition” value (Penicillium chrysogenum; 48 h, 24° C.) was 6000 ppm.
With `O=C([O-])CN(CCN(CC(=O)O)CC(=O)O)CC(=O)[O-].[Na+].[Na+]` [Na2H2EDTA, disodium dihydrogen EDTA] the “Fungal growth as compared to the control” value (Penicillium chrysogenum; 75 ppm, medium B) was 90% and the “MIC / concentration required alone to give strong growth inhibition” value (Penicillium chrysogenum; 48 h, 24° C.) was over 150 ppm.
For `O=C(O)CN(CCN(CC(=O)O)CC(=O)O)CC(=O)O` [EDTA], the “MIC / concentration required alone to give strong growth inhibition” value (Penicillium chrysogenum; 48 h, 24° C.) was 200 ppm, the “MIC / concentration required alone to give strong growth inhibition” value (Penicillium roquefortii; 48 h, 24° C.) was over 200 ppm and the “MIC / concentration required alone to give strong growth inhibition” value (Penicillium commune) was over 200 ppm.
With “Rs-AFP2: purified antifungal protein of Raphanus sativus (radish) seeds, described in WO93/05153 (QKLCQRPSGTWSGVCGNNNACKNQCIRLEKARHGSCNYVFPAHKCICYFPC; UniProt P30230 30-80, looked up)” the “MIC (minimum concentration giving more than 90% growth inhibition)” value (Penicillium chrysogenum; [3]) was over 200 ppm, the “MIC / concentration required alone to give strong growth inhibition” value (Penicillium chrysogenum; 48 h, 24° C.) was over 200 ppm and the “Fungal growth as compared to the control” value (Penicillium roquefortii; 3.1 ppm, medium B) was 100%. For the same compound, the “MIC (minimum concentration giving more than 90% growth inhibition)” value (Penicillium roquefortii; [3]) was 3 ppm, the “MIC / concentration required alone to give strong growth inhibition” value (Penicillium roquefortii; 48 h, 24° C.) was 25 ppm and the “MIC (minimum concentration giving more than 90% growth inhibition)” value (Fusarium culmorum; [4]) was 3.1 ppm. The “MIC / concentration required alone to give strong growth inhibition” value (Fusarium culmorum) was 12.5 ppm, the “MIC (minimum concentration giving more than 90% growth inhibition)” value (Alternaria sp.; [4]) was 6.25 ppm and the “MIC / concentration required alone to give strong growth inhibition” value (Alternaria sp.) was 200 ppm. The “MIC (minimum concentration giving more than 90% growth inhibition)” value (Cladosporium sp.; [4]) was 100 ppm, the “MIC / concentration required alone to give strong growth inhibition” value (Cladosporium sp.) was over 200 ppm and the “MIC (minimum concentration giving more than 90% growth inhibition)” value (Trichoderma harzianum; [4]) was 200 ppm. For the same compound, the “MIC / concentration required alone to give strong growth inhibition” value (Trichoderma harzianum) was over 200 ppm.
For `O=C([O-])CN(CCN(CC(=O)[O-])CC(=O)[O-])CC(=O)[O-].[Ca+2].[Na+].[Na+]` [CaNa2EDTA, calcium disodium EDTA], the “MIC / concentration required alone to give strong growth inhibition” value (Penicillium chrysogenum; 48 h, 24° C.) was over 150 ppm and the “MIC / concentration required alone to give strong growth inhibition” value (Penicillium roquefortii; 48 h, 24° C.) was over 150 ppm.
`CC(O)C(=O)O` (stereo not shown) [Lactic acid, lactic acid] was tested, and the “Fungal growth as compared to the control” value (Penicillium chrysogenum; 2500 ppm, medium B) was 90% and the “MIC / concentration required alone to give strong growth inhibition” value (Penicillium chrysogenum; 48 h, 24° C.) was 20,000 ppm.

Source: patent US6599514B1, “Antifungal composition” (Syngenta Limited, priority 1997, dated 2003)
